In patent publication US5026715A, “2-guanidino-4-arylthiazoles for treatment of peptic ulcers” (Pfizer Inc., priority 1989, dated 1991):
Structures can show the parent of a compound that is named as a salt.

What follows are molecules tested against T1, H^+ / K^+ ATPase isolated from canine gastric mucosa (Canis lupus familiaris, UniProt P50996) (assay: Inhibition of H+/K+ ATPase isolated from canine gastric mucosa). Conditions: preincubated 45 minutes at 37° C., pH 7.5, drugs preferably acid activated in 1:1 dimethylsulfoxide:0.02N HCl, 30 minutes, read-out: IC50 (the concentration which inhibits the enzyme to the extent of 50%).
T1 construct: ATPase isolated from canine gastric mucosa; from tissue; host or cells: canine gastric mucosa
T1 sequence (P50996 2-1034 limits assumed): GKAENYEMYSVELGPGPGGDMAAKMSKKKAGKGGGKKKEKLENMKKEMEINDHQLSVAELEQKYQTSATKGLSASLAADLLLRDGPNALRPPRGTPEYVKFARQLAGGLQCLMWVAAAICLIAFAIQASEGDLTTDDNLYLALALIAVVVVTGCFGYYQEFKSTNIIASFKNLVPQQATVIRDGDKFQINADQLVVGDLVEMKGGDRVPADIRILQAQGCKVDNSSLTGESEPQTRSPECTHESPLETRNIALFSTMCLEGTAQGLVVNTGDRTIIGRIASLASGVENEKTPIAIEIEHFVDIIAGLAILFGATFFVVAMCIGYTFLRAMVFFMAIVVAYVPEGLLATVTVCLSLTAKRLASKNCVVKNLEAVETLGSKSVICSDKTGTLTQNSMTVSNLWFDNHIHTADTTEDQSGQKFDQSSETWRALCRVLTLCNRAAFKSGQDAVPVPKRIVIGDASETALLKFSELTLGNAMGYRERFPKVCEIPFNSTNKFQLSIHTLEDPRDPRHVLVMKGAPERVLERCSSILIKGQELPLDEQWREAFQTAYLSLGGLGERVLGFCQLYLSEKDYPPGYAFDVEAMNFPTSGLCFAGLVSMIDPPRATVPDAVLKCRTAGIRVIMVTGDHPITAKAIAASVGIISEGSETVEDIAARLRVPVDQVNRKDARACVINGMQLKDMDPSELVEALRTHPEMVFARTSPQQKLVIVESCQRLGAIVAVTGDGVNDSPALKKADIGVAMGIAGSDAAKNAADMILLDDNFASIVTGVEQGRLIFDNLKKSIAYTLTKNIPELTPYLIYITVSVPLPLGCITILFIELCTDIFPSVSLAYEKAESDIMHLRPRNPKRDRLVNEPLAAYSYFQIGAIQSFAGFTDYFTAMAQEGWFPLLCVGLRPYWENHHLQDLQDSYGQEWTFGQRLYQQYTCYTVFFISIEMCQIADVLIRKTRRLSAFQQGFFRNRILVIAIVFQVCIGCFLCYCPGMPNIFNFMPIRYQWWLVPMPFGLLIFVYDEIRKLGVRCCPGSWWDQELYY
T1 sequence (P33704 whole entry partner): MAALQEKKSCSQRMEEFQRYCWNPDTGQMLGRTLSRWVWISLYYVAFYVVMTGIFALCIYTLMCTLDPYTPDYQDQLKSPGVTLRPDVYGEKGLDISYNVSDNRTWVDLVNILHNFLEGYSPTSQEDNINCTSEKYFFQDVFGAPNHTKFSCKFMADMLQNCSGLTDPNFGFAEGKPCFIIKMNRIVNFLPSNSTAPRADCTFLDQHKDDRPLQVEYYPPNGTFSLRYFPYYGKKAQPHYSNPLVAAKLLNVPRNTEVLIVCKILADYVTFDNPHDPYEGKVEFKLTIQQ
Assay type: biochemical
Method: The utility of the present compounds as antiulcer agents is reflected in vitro by their inhibition of H^+ / K^+ ATPase isolated from canine gastric mucosa. The enzyme activity was assayed according to Beil et al., Brit. J. Pharmacol. 82, 651-657 (1984) with slight modifications. The enzyme (1-2 micrograms) was preincubated at 37° C. for 45 minutes with a medium containing 2×10^-3 M MgCl2, 0.05M Tris-Cl buffer (pH 7.5) with or without 0.01M KCl, and the acid activated test drug in a final volume of 0.590 ml. The reaction was started by the addition of […] of ATP (final concentration 3×10^-3 M). The reaction was terminated by adding trichloroacetic acid to a concentration of 4.2%. Liberated inorganic phosphate was determined using Fiske and Subbarow Reducer available commercially (e.g., from Sigma Chemical Co., P.O. Box 14508, St. Louis, Mo. 63178, U.S.A.). In this test the drugs are preferably first acid activated by incubating in 1:1 dimethylsulfoxide:0.02N HCl at 37° C. for 30 minutes.

| IC50 [µM] | Structure (SMILES) |
| --- | --- |
| 10 | COc1cccc(-c2csc(NC(=N)NCc3ccccc3)n2)c1 [4-(3-methoxyphenyl)-2-(N-benzylguanidino)thiazole] |
| 15 | Cc1cc(-c2csc(NC(=N)N)n2)c[nH]1 [2-guanidino-4-(2-methylpyrrol-4-yl)thiazole] |
| 0.6 | N=C(NCc1ccccc1)Nc1nc(-c2c[nH]c3ccc(Cl)cc23)cs1 [4-(5-chloro-1H-indol-3-yl)-2-(N-benzylguanidino)thiazole] |
| 2 | N=C(NCc1ccccc1)Nc1nc(-c2c[nH]c3ccccc23)cs1 [4-(1H-Indol-3-yl)-2-(N-benzyl-N"-guanidino)thiazole Hydrochloride] |

The molecules below were run on ethanol-induced gastric ulceration in rats (assay: Inhibition of ethanol-induced gastric ulceration in rats (cytoprotective activity)). Conditions: dose of 30 mg/kg.
Assay type: in vivo, rat
Text: The in vivo utility of the present compounds as antiulcer agents is also particularly shown by their cytoprotective activity.

| Structure (SMILES) | inhibition of ethanol-induced gastric ulceration [%] |
| --- | --- |
| Cc1cc(-c2csc(NC(=N)N)n2)c[nH]1 [2-guanidino-4-(2-methylpyrrol-4-yl)thiazole] | 100 |
| NC(=Nc1nc(-c2ccc[nH]2)cs1)NCc1ccccc1 [2-(N-benzylguanidino)-4-(pyrrol-2-yl)thiazole] | 99 |
